Columns and labels:
[1] = J. Med. Chem., 33, 1729 (1990); cited from earlier work
bovine thrombin [2] = target: T1, bovine thrombin (Bos taurus, UniProt P00735); assay: Antithrombin activity: coagulation inhibition of rat plasma; type: biochemical
T1 construct: purchased Mochida Co., Ltd
Description: (ii) The measuring method for coagulation inhibition of rat plasma The compound of the present invention is dissolved in water or saline to form a solution of a total volume of 0.1 ml. To the solution, 0.1 ml of rat plasma is added and the mixture is incubated at 37° C. for 30 seconds. Then, 0.1 ml of bovine thrombin (8 units/ml, Mochida Co., Ltd.) is added and the coagulation time is measured at 37° C. The concentration of the inhibitor (i.e., the compound of the present invention) which doubles the coagulation time that obtained in the absence of the inhibitor was determined as I50 (μm).

bovine thrombin [3] = target: T1, bovine thrombin; assay: Antithrombin activity: hydrolysis inhibition of synthetic substrate (S-2238); type: biochemical
Description: Determination of antithrombin activity
(i) The measuring method for hydrolysis inhibition of synthetic substrate (S-2238)
S-2238 (manufactured by Kabi Co.) is dissolved in a Tris hydrochloric acid buffer solution (pH: 8.3) to prepare a S-2238-0.4M Tris hydrochloric acid solution having a concentration of 80 μm. To 175 μl of the solution, an aqueous solution of a compound of the present invention (515 μl) is added. After incubating at 37° C. for one minute, 10 μl of a bovine thrombin solution (4.4 units/ml, manufactured by Mochida Co., Ltd.) is added. A hydrolysis reaction rate of the substrate is determined by measuring a change in absorbance of 405 nm at 37° C.

bovine trypsin = target: T2, bovine trypsin (Bos taurus, UniProt P00760); assay: Antitrypsin activity: hydrolysis inhibition of synthetic substrate (S-2222); type: biochemical; conditions: S-2222 substrate, pH 8.3, 37° C., absorbance 405 nm, read-out: Antitrypsin activity I50
T2 construct: purchased Sigma Co
T2 sequence (P00760 24-246): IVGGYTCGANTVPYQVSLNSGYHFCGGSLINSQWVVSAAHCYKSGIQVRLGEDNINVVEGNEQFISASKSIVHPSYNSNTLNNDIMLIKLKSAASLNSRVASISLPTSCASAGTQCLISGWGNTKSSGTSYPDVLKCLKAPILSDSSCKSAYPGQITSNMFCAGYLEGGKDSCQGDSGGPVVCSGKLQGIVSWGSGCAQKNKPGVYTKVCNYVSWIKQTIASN
Description: Determination of Antitrypsin activity
(i) The measuring method for hydrolysis inhibition of synthetic substrate (S-2222)
S-2222 (manufactured by Kabi Co.) is dissolved in a Tris hydrochloric acid (pH: 8.3) to prepare a S-2222-0.4M Tris hydrochloric acid solution having a concentration of 400 μm. To the solution (175 μl), 515 μl of a solution of a compound of the present invention is added. After incubating at 37° C. for one minute, 10 μl of a bovine trypsin solution (1 to 2 mg/ml, manufactured by Sigma Co.) is added. A hydrolysis reaction rate of the substrate is determined by measuring a change in absorbance of 405 nm at 37° C.

| Structure (SMILES) | stability in the living body [1] | IC50 (bovine thrombin [2]) [nM] | IC50 (bovine thrombin [3]) [nM] | IC50 (bovine trypsin) [nM] |
| --- | --- | --- | --- | --- |
| N=C(N)NCCC[C@@H](C=O)NC(=O)[C@@H]1CCCN1C(=O)[C@H](N)Cc1ccccc1 [D-phenylalanyl-L-prolyl-L-arginal] | fairly unstable | – | – | – |
| CS(=O)(=O)N[C@@H](C(=O)N1CCC[C@H]1C(=O)NCc1ccc(C(=N)N)cc1)C1CCCCC1 [compound 1] | – | 46 | – | – |
| CC(C)(C)C[C@@H](NS(C)(=O)=O)C(=O)N1CCC[C@H]1C(=O)NCc1ccc(C(=N)N)cc1 [compound 2] | – | 30 | – | – |
| CS(=O)(=O)N[C@H](Cc1ccccc1)C(=O)N1CCC[C@H]1C(=O)NCc1ccc(C(=N)N)cc1 [compound 4] | – | 21 | 7.6 | 40 |
| CSCC[C@@H](NS(C)(=O)=O)C(=O)N1CCC[C@H]1C(=O)NCc1ccc(C(=N)N)cc1 [compound 5] | – | 48 | – | – |
| N=C(N)c1ccc(CNC(=O)[C@@H]2CCCN2C(=O)[C@@H](Cc2ccccc2)NC=O)cc1 [compound 6] | – | 56 | – | – |
| CCCC[C@@H](NS(C)(=O)=O)C(=O)N1CCC[C@H]1C(=O)NCc1ccc(C(=N)N)cc1 [compound 7] | – | 30 | – | – |
| COC(=O)c1ccc(CC[C@@H](NS(C)(=O)=O)C(=O)N2CCC[C@H]2C(=O)NCc2ccc(C(=N)N)cc2)cc1 [compound 8] | – | 122 | – | – |
| CS(=O)(=O)N[C@H](COc1cccc(C(=O)O)c1)C(=O)N1CCC[C@H]1C(=O)NCc1ccc(C(=N)N)cc1 [compound 9] | – | 110 | – | – |
| CS(=O)(=O)N[C@H](COc1ccccc1C(=O)OCc1ccccc1)C(=O)N1CCC[C@H]1C(=O)NCc1ccc(C(=N)N)cc1 [compound 10] | – | 170 | – | – |
| CCCCC[C@@H](NS(=O)(=O)CC(=O)O)C(=O)N1CCC[C@H]1C(=O)NCc1ccc(C(=N)N)cc1 [compound 12] | – | 83 | – | – |
| N=C(N)c1ccc(CNC(=O)[C@@H]2CCCN2C(=O)CCCc2ccccc2)cc1 [compound 13] | – | 590 | 720 | – |
| CCOC(=O)N[C@H](CC(C)(C)C)C(=O)N1CCC[C@H]1C(=O)NC[C@H]1CC[C@H](C(=N)N)CC1 [compound 15] | – | 38 | 11 | 2200 |
| CCOC(=O)N[C@H](CC1CCCCC1)C(=O)N1CCC[C@H]1C(=O)NC[C@H]1CC[C@H](C(=N)N)CC1 [compound 16] | – | – | 21 | 1700 |
| CC(C)OC(=O)N[C@H](CC(C)(C)C)C(=O)N1CCC[C@H]1C(=O)NC[C@H]1CC[C@H](C(=N)N)CC1 [compound 17] | – | 53 | 15 | 3200 |
| CC(C)C[C@@H](NS(C)(=O)=O)C(=O)N1CCC[C@H]1C(=O)NC[C@H]1CC[C@H](C(=N)N)CC1 [compound 19] | – | 31 | – | – |

| Structure (SMILES) | stability in the living body [1] | IC50 (bovine thrombin [2]) [nM] | IC50 (bovine thrombin [3]) [nM] | IC50 (bovine trypsin) [nM] |
| --- | --- | --- | --- | --- |
| CS(=O)(=O)N[C@H](CC1CCCCC1)C(=O)N1CCC[C@H]1C(=O)NC[C@H]1CC[C@H](C(=N)N)CC1 [compound 20] | – | 28 | – | – |
| CC(C)OC(=O)N[C@@H](C(=O)N1CCC[C@H]1C(=O)NC[C@H]1CC[C@H](C(=N)N)CC1)C1CCCCC1 [compound 21] | – | – | 21 | 1000 |
| CCOC(=O)N[C@H](CC(CC)CC)C(=O)N1CCC[C@H]1C(=O)NC[C@H]1CC[C@H](C(=N)N)CC1 [compound 22] | – | – | 14 | 940 |
| CC(C)(C)C[C@@H](NC(=O)OC(C)(C)C)C(=O)N1CCC[C@H]1C(=O)NC[C@H]1CC[C@H](C(=N)N)CC1 [compound 23] | – | 58 | 17 | 3600 |
| NC(=NO)c1ccc(CNC(=O)[C@@H]2CCCN2C(=O)Cc2ccccc2)cc1 [compound 25] | – | > 300000 | – | – |
| CS(=O)(=O)N[C@H](Cc1ccccc1)C(=O)N1CCC[C@H]1C(=O)NC[C@H]1CC[C@H](N)CC1 [compound 52] | – | 45 | 130 | 14000 |
| CS(=O)(=O)N[C@@H](C(=O)N1CCC[C@H]1C(=O)NC[C@H]1CC[C@H](N)CC1)C1CCCCC1 [compound 53] | – | 59 | 81 | 1400 |
| N[C@H]1CC[C@H](CNC(=O)[C@@H]2CCCN2C(=O)[C@H](CCC(=O)O)NS(=O)(=O)c2ccccc2)CC1 [compound 54] | – | 230 | – | – |
| CC(C)OC(=O)N[C@H](CC(C)(C)C)C(=O)N1CCC[C@H]1C(=O)NC[C@H]1CC[C@H](N)CC1 [compound 56] | – | 80 | 130 | 14000 |
| CCOC(=O)N[C@H](Cc1ccccc1)C(=O)N1CCC[C@H]1C(=O)NC[C@H]1CC[C@H](N)CC1 [compound 57] | – | 82 | – | – |
| N[C@H](Cc1ccccc1)C(=O)N1CCC[C@H]1C(=O)NC[C@H]1CC[C@H](N)CC1 [compound 58] | – | 97 | – | – |
| N[C@H]1CC[C@H](CNC(=O)[C@@H]2CCCN2C(=O)[C@H](O)C2CCCCC2)CC1 [compound 61] | – | 56 | – | – |
| N[C@H]1CC[C@H](CNC(=O)[C@@H]2CCCN2C(=O)[C@H](O)c2ccccc2)CC1 [compound 62] | – | 88 | – | – |
| CCOC(=O)N[C@H](CC(C)(C)C)C(=O)N1CCC[C@H]1C(=O)NC[C@H]1CC[C@H](N)CC1 [compound 64] | – | 130 | – | – |
| CS(=O)(=O)N[C@H](Cc1ccccc1)C(=O)N1CCC[C@H]1C(=O)NC[C@H]1CC[C@H](NC(=N)N)CC1 [compound 67] | – | 81 | 560 | 20000 |

Source: patent US5744487A, “Prolineamide derivatives” (Mitsubishi Chemical Corporation, priority 1994, dated 1998)
